“And” between values parts separate entries of the source, which are not always exact repeats. Equal entries are not always repeated. Records with an inconclusive call do not appear.
Test system: MX-1 breast xenograft, intrarenal, nude mice, tumor weight
Assay: NCI In Vivo Anticancer Drug Screen. Data for tumor model Human Mammary Carcinoma MX-1 Xenograft (intrarenal inoculation) in NU/NU BALB/C (nude) mice
Settings: endpoint: mean tumor weight change, higher = larger tumour
Procedure: The antitumor activity of compounds was measured in mice bearing transplantable tumors. Survival or tumor size were measured and the results are expressed as the measurement made in the treated group (T) divided by the measurement made in the vehicle treated control group (C). The tumor model used in this assay is Human Mammary Carcinoma MX-1 Xenograft (intrarenal inoculation) in NU/NU BALB/C (nude) mice

[1] = dose: 37.5 mg/kg/injection, schedule: Q04DX003 (sc), vehicle: saline
[2] = dose: 50.0 mg/kg/injection, schedule: Q04DX003 (ip), vehicle: DMSO
[3] = dose: 100.0 mg/kg/injection, schedule: Q01DX010 (sc), vehicle: saline
[4] = dose: 200.0 mg/kg/injection, schedule: Q01DX010 (sc), vehicle: saline
[5] = dose: 75.0 mg/kg/injection, schedule: Q04DX003 (sc), vehicle: saline
[6] = dose: 200.0 mg/kg/injection, schedule: Q04DX003 (ip), vehicle: saline with Tween-80
[7] = dose: 150.0 mg/kg/injection, schedule: Q04DX003 (ip), vehicle: Klucel (hydroxypropylcellulose) (HPC)
[8] = dose: 300.0 mg/kg/injection, schedule: Q04DX003 (sc), vehicle: saline with Tween-80
[9] = dose: 600.0 mg/kg/injection, schedule: Q04DX003 (sc), vehicle: saline with Tween-80
[10] = dose: 1200.0 mg/kg/injection, schedule: Q04DX003 (sc), vehicle: saline with Tween-80
[11] = dose: 2400.0 mg/kg/injection, schedule: Q04DX003 (sc), vehicle: saline with Tween-80

O=P(O)(NCCCl)NCCCl
T/C [1]: 31 % of control

Cn1c(=S)sc2nc3ccccc3n2c1=S
T/C (dose: 30.0 mg/kg/injection, schedule: Q04DX003 (ip), vehicle: saline with Tween-80): 165 % of control
T/C (dose: 120.0 mg/kg/injection, schedule: Q04DX003 (ip), vehicle: saline with Tween-80): 42 % of control

c1ccc2[nH]c(CN(CCN(Cc3nc4ccccc4[nH]3)Cc3nc4ccccc4[nH]3)Cc3nc4ccccc4[nH]3)nc2c1
T/C (dose: 6.25 mg/kg/injection, schedule: Q04DX003 (ip), vehicle: DMSO): 59 % of control and 68 % of control
T/C [2]: 62 % of control

CNNCc1ccc(C(=O)NC(C)C)cc1
T/C (dose: 50.0 mg/kg/injection, schedule: Q01DX010 (sc), vehicle: saline): 97 % of control
T/C [3]: 70 % of control
T/C [4]: 45 % of control
T/C (dose: 400.0 mg/kg/injection, schedule: Q01DX010 (sc), vehicle: saline): 4 % of control

CC1CN1P1(N2CC2C)=NP(N2CC2C)(N2CC2C)=NP(N2CC2C)(N2CC2C)=N1 (stereo not drawn)
T/C [5]: 51 % of control
T/C (dose: 150.0 mg/kg/injection, schedule: Q04DX003 (sc), vehicle: saline): 3 % of control

N#Cc1c(-c2ccc(F)cc2)c(-c2ccc(F)cc2)nn(CCO)c1=O
T/C (dose: 50.0 mg/kg/injection, schedule: Q04DX003 (ip), vehicle: distilled water + Tween-80): 109 % of control
T/C (dose: 400.0 mg/kg/injection, schedule: Q04DX003 (ip), vehicle: distilled water + Tween-80): -28 % of control

CNC(=O)N(C)N=NCCCl
T/C (dose: 100.0 mg/kg/injection, schedule: Q04DX003 (ip), vehicle: saline with Tween-80): 15 % of control
T/C (dose: 140.0 mg/kg/injection, schedule: Q04DX003 (ip), vehicle: saline with Tween-80): 10 % of control
T/C [6]: 1 % of control
T/C (dose: 240.0 mg/kg/injection, schedule: Q04DX003 (ip), vehicle: saline with Tween-80): 8 % of control
T/C (dose: 400.0 mg/kg/injection, schedule: Q04DX003 (ip), vehicle: saline with Tween-80): -76 % of control

C[C@]12CCC(=O)C(O)=C1CC[C@@H]1[C@@H]2CC[C@]2(C)C(=O)CC[C@@H]12
T/C [7]: 101 % of control
T/C (dose: 300.0 mg/kg/injection, schedule: Q04DX003 (ip), vehicle: Klucel (hydroxypropylcellulose) (HPC)): 96 % of control
T/C (dose: 600.0 mg/kg/injection, schedule: Q04DX003 (ip), vehicle: Klucel (hydroxypropylcellulose) (HPC)): 122 % of control
T/C (dose: 1200.0 mg/kg/injection, schedule: Q04DX003 (ip), vehicle: Klucel (hydroxypropylcellulose) (HPC)): 113 % of control

CC(C)(C[NH-])C[NH-].[Cl][Pt+2][Cl]
T/C (dose: 1.5 mg/kg/injection, schedule: Q04DX003 (ip), vehicle: water): 56 % of control
T/C (dose: 6.0 mg/kg/injection, schedule: Q04DX003 (ip), vehicle: water): 2 % of control and 3 % of control

O=C(O)CC(=O)O.[NH-]C1CCCCC1[NH-].[Pt+2] (stereo not drawn)
T/C (dose: 10.0 mg/kg/injection, schedule: Q01DX010 (sc), vehicle: dextrose): 93 % of control
T/C (dose: 20.0 mg/kg/injection, schedule: Q01DX010 (sc), vehicle: dextrose): 92 % of control
T/C (dose: 30.0 mg/kg/injection, schedule: Q01DX010 (sc), vehicle: dextrose): -84 % of control
T/C (dose: 40.0 mg/kg/injection, schedule: Q01DX010 (sc), vehicle: dextrose): 83 % of control
T/C (dose: 60.0 mg/kg/injection, schedule: Q01DX010 (sc), vehicle: dextrose): -86 % of control
T/C (dose: 80.0 mg/kg/injection, schedule: Q01DX010 (sc), vehicle: dextrose): 74 % of control

Cc1ccoc1
T/C (dose: 50.0 mg/kg/injection, schedule: Q01DX010 (ip), vehicle: saline with Tween-80): 102 % of control
T/C (dose: 100.0 mg/kg/injection, schedule: Q01DX010 (ip), vehicle: saline with Tween-80): 97 % of control
T/C (dose: 200.0 mg/kg/injection, schedule: Q01DX010 (ip), vehicle: saline with Tween-80): 104 % of control

CN=C(N)N/N=C(\C)c1ccc2sc3ccc(/C(C)=N/NC(N)=NC)cc3c2c1
T/C (dose: 150.0 mg/kg/injection, schedule: Q04DX003 (ip), vehicle: saline with Tween-80): 90 % of control
T/C (dose: 300.0 mg/kg/injection, schedule: Q04DX003 (ip), vehicle: saline with Tween-80): 59 % of control

CCC(NC(N)=O)C(CC)NC(N)=O (stereo not drawn)
T/C (dose: 6.25 mg/kg/injection, schedule: Q04DX003 (ip), vehicle: saline with Tween-80): 89 % of control
T/C (dose: 12.5 mg/kg/injection, schedule: Q04DX003 (ip), vehicle: saline with Tween-80): 78 % of control
T/C (dose: 25.0 mg/kg/injection, schedule: Q04DX003 (ip), vehicle: saline with Tween-80): 74 % of control

CNC=O
T/C [3]: 47 % of control
T/C [4]: 10 % of control

CNCCN=c1ccc2c3c1c(O)c1c(O)ccc(=O)c1c3[nH]n2CCNCCO
T/C (dose: 1.56 mg/kg/injection, schedule: Q04DX003 (ip), vehicle: water): 7 % of control and 17 % of control and 26 % of control
T/C (dose: 3.12 mg/kg/injection, schedule: Q04DX003 (ip), vehicle: water): 1 % of control and 5 % of control and 8 % of control

O=C(CN1CCOCC1)Nc1nc(-c2ccc(Cl)cc2)cs1
T/C (dose: 150.0 mg/kg/injection, schedule: Q04DX003 (ip), vehicle: other): 96 % of control
T/C (dose: 600.0 mg/kg/injection, schedule: Q04DX003 (ip), vehicle: other): 71 % of control
T/C (dose: 1200.0 mg/kg/injection, schedule: Q04DX003 (ip), vehicle: other): 60 % of control

CO[C@H]1Nc2c(ccc(C)c2O)C(=O)N2C=C(/C=C/C(N)=O)C[C@@H]12
T/C (dose: 0.25 mg/kg/injection, schedule: Q04DX003 (sc), vehicle: saline + alcohol): 41 % of control
T/C (dose: 0.5 mg/kg/injection, schedule: Q04DX003 (sc), vehicle: saline + alcohol): 12 % of control
T/C (dose: 1.0 mg/kg/injection, schedule: Q04DX003 (sc), vehicle: saline + alcohol): -58 % of control
T/C (dose: 2.0 mg/kg/injection, schedule: Q04DX003 (sc), vehicle: saline + alcohol): -98 % of control

O=C(O)CC1C(=O)OC2C3COC(=O)c4cc(O)c(O)c(O)c4-c4c(cc(O)c(O)c4O)C(=O)OC2C(OC(=O)c2cc(O)c(O)c4c2C1C(O)C(=O)O4)C(OC(=O)c1cc(O)c(O)c(O)c1)O3 (stereo not drawn)
T/C (dose: 25.0 mg/kg/injection, schedule: Q04DX003 (ip), vehicle: saline): 120 % of control
T/C (dose: 50.0 mg/kg/injection, schedule: Q04DX003 (ip), vehicle: saline): 99 % of control
T/C (dose: 100.0 mg/kg/injection, schedule: Q04DX003 (ip), vehicle: saline): 73 % of control

COc1cc2c(oc(=O)c3cc(C)cc(OC)c32)c2c(C3OC(C)C(O)C(C)(O)C3O)ccc(O)c12 (stereo not drawn)
T/C (dose: 12.5 mg/kg/injection, schedule: Q04DX003 (ip), vehicle: DMSO): 97 % of control and 106 % of control
T/C [2]: 48 % of control and 63 % of control

O=C(CCCCCCC(=O)ON1C(=O)CCC1=O)ON1C(=O)CCC1=O
T/C [8]: 110 % of control
T/C [9]: 96 % of control
T/C [10]: 81 % of control
T/C [11]: 85 % of control

N=C1CCCS1
T/C (dose: 18.75 mg/kg/injection, schedule: Q04DX003 (sc), vehicle: saline): 108 % of control
T/C [1]: 91 % of control
T/C [5]: 124 % of control

CC(=O)Oc1[nH]c(=O)c2cccc3c2c1CCC3
T/C [8]: 107 % of control
T/C [9]: 93 % of control
T/C [10]: 118 % of control
T/C [11]: 89 % of control

COc1ccc2oc3c(ccc[n+]3C)c(=O)c2c1
T/C [6]: 116 % of control

COc1cc(O)c2c(O)c3c(c4c2c1[C@]1(C4)C(C)=CCCC1(C)C)[C@H](O)[C@@]1(O)CC(=O)C(C(N)=O)=C(O)[C@@]1(O)C3=O
T/C (dose: 75.0 mg/kg/injection, schedule: Q04DX003 (ip), vehicle: saline with Tween-80): 106 % of control

CC1Oc2cc3c(-c4c(O)cc(O)c5c(O)c6c(cc45)OC(C)C(C)C6=O)c(O)cc(O)c3c(O)c2C(=O)C1C (stereo not drawn)
T/C (dose: 9.0 mg/kg/injection, schedule: Q04DX003 (ip), vehicle: suspension in saline): 21 % of control
T/C (dose: 12.0 mg/kg/injection, schedule: Q04DX003 (ip), vehicle: suspension in saline): 15 % of control

CC1=C(C(N)=O)C(c2ccccc2)NC(=S)N1 (stereo not drawn)
T/C [7]: 87 % of control

Nc1nc2ncn(O)c2c(=O)[nH]1
T/C (dose: 25.0 mg/kg/injection, schedule: Q04DX003 (ip), vehicle: water): 25 % of control and 41 % of control
T/C (dose: 50.0 mg/kg/injection, schedule: Q04DX003 (ip), vehicle: water): 13 % of control

CCc1ccc(C2=C(O)C(=O)C(c3ccc(CC)cc3)=C(O)C2=O)cc1
T/C (dose: 200.0 mg/kg/injection, schedule: Q04DX003 (sc), vehicle: saline with Tween-80): 67 % of control
